# Data from US20240382487A1, “NOVEL COPI/ARF1-LIPOLYSIS PATHWAY INHIBITOR AND COMPOUND FOR ERADICATING CANCER STEM CELLS AND INDUCING DAMP-MEDIATED ANTI-TUMOR IMMUNE RESPONSE” (FUDAN UNIVERSITY, priority 2020, published 2024).
# System: B16-F10 melanoma
# Experiment: Drug-treated B16-F10 cells in athymic nude mice
# Type: in vivo
# Design: unit not given here
# Conditions: cells treated with 10 μM Du 102
# Protocol: The immunogenicity of the reagents can be tested in mouse vaccination models (Obeid et al., 2007; Sagiv barfi et al., 2018). One flank of the mouse was injected with drug treated tumor cells, followed one week later by a second injection of syngeneic tumor cells. We tested the vaccine efficacy in CT-26 colon cancer, B16-F10 melanoma, and 4T1 breast cancer treated with DMSO or du102.
# Cells will be treated with 10 μM Du 102 or DMSO treated CT26, 4T1 and B16-F10 tumor cells (5×10^5\1×10^5 and 5×10^5, respectively) were subcutaneously inoculated into 6-week-old female mice. After 7 days, equal amounts of corresponding tumor cells were seeded to the right side. Tumor cell lines were mixed with Matrigel (GIBCO, cat s̆ 354234) or resuspended in PBS and injected subcutaneously or intradermally.
substance,measurement,setting,value
"1H-indolo-5-carbaldehyde 5,6,7,8,9,10-hexahydrocycloocta[4,5]thieno[2,3-d]pyrimidin-4-ylhydrazone [Du 102]",B16-F10 melanoma tumor in Athymic mice,Day 0,0
same,B16-F10 melanoma tumor in Athymic mice,Day 5,7.3
same,B16-F10 melanoma tumor in Athymic mice,Day 10,51.8
same,B16-F10 melanoma tumor in Athymic mice,Day 15,202.7
same,B16-F10 melanoma tumor in Athymic mice,Day 20,355.9
same,B16-F10 melanoma tumor in Athymic mice,Day 25,853.4
